Experimental data published in patent publication US11434490B2, “Fluorogen-binding RNA aptamers” (CENTRE NATIONAL DE LA RECHERCHE SCIENTIFIQUE, priority 2017, dated 2022).

What was measured:
[1] = In vitro fluorescence of Mango tagged RNA constructs; type: biochemical; conditions: 40 nM TO1-Biotin, 200 nM RNA
Excerpt: FIG. 14|RNA scaffold diagrams. Diagrams of the 5S-Mango and U6-Mango constructs synthesized (sequences in Table 2) and their fluorescence emission as a function of wavelength after excitation at 505 nm, compared to unmodified Mango I-IV.
DNA encoding the F30 folding scaffold was modified to incorporate the Mango RNA sequences and ordered from (Intergrated DNA Technologies). The DNA was amplified by PCR to incorporate 5′ SalI and 3′ Xbal restriction sites. PCR products were digested using Fast Digest enzymes (Thermo Fisher) and ligated into SalI/Xbal linearized and Shrimp Alkaline Phosphotase (NEB) treated pAV5S-F30-2xdBroccoli (Addgene plasmid 66845, a gift from Dr S. Jaffrey). DNA encoding the full 5S-F30-Mango sequence was PCR amplified and a 5′ T7 RNA polymerase promoter introduced. DNA was transcribed in vitro with T7 RNA polymerase (NEB) at 37° C. for 16 h in 40 mM Tris-HCl, 30 mM MgCl2, 2 mM spermidine, 1 mM dithiothreitol, 5 mM rNTPs, 1 U/μl E. coli inorganic pyrophosphotase, 4 U/μl T7 RNA polymerase (pH 7.9). RNA was purified from an 8 M urea denaturing polyacrylamide […] gel followed by elution in RNA elution buffer (40 mM Tris-HCl pH 8.0, 0.5 M sodium acetate, 0.1 mM EDTA) and ethanol precipitation.

HEK293T cells = assay: Cellular imaging of transfected Mango tagged RNAs; type: cell-based; conditions: against 5S-F30-Mango-IV
Description: HEK293T cells were grown in Dulbecco Modified Eagle's Medium containing 10% Fetal Bovine Serum, 2 mM D-Glucose, 2 mM L-Glutamine, 1 mM Sodium Pyruvate and 100 U/ml Penicillin/Streptomycin (Thermo Fisher) and maintained at 37° C. with 5% CO2 in a humidified incubator. Cells used for imaging were cultured in Ibidi glass bottomed 8-well chamber slides (Ibidi GmbH).
RNA was transfected directly into 8-well chamber slides using the Lipofectamine-based CRISPRMAX reagent following the manufacturers guidelines (Invitrogen). Initially 125 nM RNA containing 10 mM Sodium Phosphate buffer (pH 7.2), 100 mM KCl and 1 mM MgCl2 was incubated at room temperature followed by a 1:1 dilution in OptiMEM prior to transfection. The RNA transfected was incubated at 37° C. for 1 hour in complete growth medium.
Cells were fixed in PBS containing 4% paraformaldehyde for 10 min on ice (Thermo Fisher) followed by permeabilization in 0.2% Triton X-100 for 10 min at room temperature. Cells were first blocked (2% BSA in PBS) for 30 min followed by primary antibody (1:50-1:500 dilutions) incubation for 120 min in blocking solution.
Primary antibodies used here were: Anti-Ribosomal Protein S6 (MAB5436, R&D Systems), Anti-ATP5B (ab14730, Abcam), Anti-GW182 (ab7052, Abcam), Anti-EEA-1 (ab70521, Abcam), Anti-LSm3 (NBP2-14206, Novus Biologicals), Anti-TIAR (sc-398372, Santa Cruz). Secondary antibodies used were Donkey Anti-mouse and Donkey Anti-Rabbit Alexa Fluor 680 (Molecular Probes). Primary antibodies were washed three times for 20 min each in blocking solution followed by incubation with secondary antibody at 1:500 dilution for 60 min, which was subsequently washed as above.
To visualize the nuclear boundary in live cells, a plasmid expressing a fluorescently tagged histone protein (EBFP2-H2B-6, Addgene plasmid 55243) was transfected using FuGene 6 (Promega) 24 h prior to RNA transfection. […] Following incubation of the RNA transfection, the cells were washed once with PBS and replaced with live-cell imaging media (Fluorobrite DMEM supplemented with 20 mM HEPES, Invitrogen). Live and fixed cell images were taken using a Zeiss Elyra wide-field microscope by exciting at 405 nm (Blue), 488 nm (Green) and 642 nm (Far-Red) and detecting at 420-480 nm, 495-550 nm and >650 nm, respectively. Live cells were maintained at 37° C. with 5% CO2 in a stage top incubator (Tokai Hit). Images were processed using FIJI and spot detection analysis was performed on each maximum projection by the spot detector plugin in the ICY image analysis software, which detects significant foci with a pixel area 3×3 pixels.

Question: For “U6-Mango-IV: U6 snRNA with Mango-IV in an internal stem loop; SEQ ID NO: 6896 [Mango U6-Mango-IV]”, which “fluorescence intensity in vitro” value [1] is on record?
Answer: Its value is “comparable fluorescence intensity to Mango IV alone”.

Question: What about the “increase of the fraction of nuclear foci” value (HEK293T cells) of the same substance?
Answer: Its value is roughly 9 fold.
